Reference: ChEMBL document CHEMBL4800722, “Data for DCP probe BI 605906” (2021)

Tests used:
[1] = target: Polyunsaturated fatty acid lipoxygenase ALOX15 (Oryctolagus cuniculus) (UniProt P12530); assay: 15LO Eurofins SafetyScreen44 (BI); conditions: Compound concentration 10.0 uM
[2] = target: Polyunsaturated fatty acid 5-lipoxygenase (Homo sapiens) (UniProt P09917); assay: 5LO Eurofins SafetyScreen44 (BI); conditions: Compound concentration 10.0 uM
[3] = target: Voltage-dependent L-type calcium channel subunit alpha-1C (CA+/DHPSI/RA) (Rattus norvegicus, UniProt P22002); assay: CA+/DHPSI/RA Eurofins SafetyScreen44 (BI); conditions: read-out: % Ctrl
Chain of Voltage-dependent L-type calcium channel subunit alpha-1C (CA+/DHPSI/RA) (P22002 whole entry): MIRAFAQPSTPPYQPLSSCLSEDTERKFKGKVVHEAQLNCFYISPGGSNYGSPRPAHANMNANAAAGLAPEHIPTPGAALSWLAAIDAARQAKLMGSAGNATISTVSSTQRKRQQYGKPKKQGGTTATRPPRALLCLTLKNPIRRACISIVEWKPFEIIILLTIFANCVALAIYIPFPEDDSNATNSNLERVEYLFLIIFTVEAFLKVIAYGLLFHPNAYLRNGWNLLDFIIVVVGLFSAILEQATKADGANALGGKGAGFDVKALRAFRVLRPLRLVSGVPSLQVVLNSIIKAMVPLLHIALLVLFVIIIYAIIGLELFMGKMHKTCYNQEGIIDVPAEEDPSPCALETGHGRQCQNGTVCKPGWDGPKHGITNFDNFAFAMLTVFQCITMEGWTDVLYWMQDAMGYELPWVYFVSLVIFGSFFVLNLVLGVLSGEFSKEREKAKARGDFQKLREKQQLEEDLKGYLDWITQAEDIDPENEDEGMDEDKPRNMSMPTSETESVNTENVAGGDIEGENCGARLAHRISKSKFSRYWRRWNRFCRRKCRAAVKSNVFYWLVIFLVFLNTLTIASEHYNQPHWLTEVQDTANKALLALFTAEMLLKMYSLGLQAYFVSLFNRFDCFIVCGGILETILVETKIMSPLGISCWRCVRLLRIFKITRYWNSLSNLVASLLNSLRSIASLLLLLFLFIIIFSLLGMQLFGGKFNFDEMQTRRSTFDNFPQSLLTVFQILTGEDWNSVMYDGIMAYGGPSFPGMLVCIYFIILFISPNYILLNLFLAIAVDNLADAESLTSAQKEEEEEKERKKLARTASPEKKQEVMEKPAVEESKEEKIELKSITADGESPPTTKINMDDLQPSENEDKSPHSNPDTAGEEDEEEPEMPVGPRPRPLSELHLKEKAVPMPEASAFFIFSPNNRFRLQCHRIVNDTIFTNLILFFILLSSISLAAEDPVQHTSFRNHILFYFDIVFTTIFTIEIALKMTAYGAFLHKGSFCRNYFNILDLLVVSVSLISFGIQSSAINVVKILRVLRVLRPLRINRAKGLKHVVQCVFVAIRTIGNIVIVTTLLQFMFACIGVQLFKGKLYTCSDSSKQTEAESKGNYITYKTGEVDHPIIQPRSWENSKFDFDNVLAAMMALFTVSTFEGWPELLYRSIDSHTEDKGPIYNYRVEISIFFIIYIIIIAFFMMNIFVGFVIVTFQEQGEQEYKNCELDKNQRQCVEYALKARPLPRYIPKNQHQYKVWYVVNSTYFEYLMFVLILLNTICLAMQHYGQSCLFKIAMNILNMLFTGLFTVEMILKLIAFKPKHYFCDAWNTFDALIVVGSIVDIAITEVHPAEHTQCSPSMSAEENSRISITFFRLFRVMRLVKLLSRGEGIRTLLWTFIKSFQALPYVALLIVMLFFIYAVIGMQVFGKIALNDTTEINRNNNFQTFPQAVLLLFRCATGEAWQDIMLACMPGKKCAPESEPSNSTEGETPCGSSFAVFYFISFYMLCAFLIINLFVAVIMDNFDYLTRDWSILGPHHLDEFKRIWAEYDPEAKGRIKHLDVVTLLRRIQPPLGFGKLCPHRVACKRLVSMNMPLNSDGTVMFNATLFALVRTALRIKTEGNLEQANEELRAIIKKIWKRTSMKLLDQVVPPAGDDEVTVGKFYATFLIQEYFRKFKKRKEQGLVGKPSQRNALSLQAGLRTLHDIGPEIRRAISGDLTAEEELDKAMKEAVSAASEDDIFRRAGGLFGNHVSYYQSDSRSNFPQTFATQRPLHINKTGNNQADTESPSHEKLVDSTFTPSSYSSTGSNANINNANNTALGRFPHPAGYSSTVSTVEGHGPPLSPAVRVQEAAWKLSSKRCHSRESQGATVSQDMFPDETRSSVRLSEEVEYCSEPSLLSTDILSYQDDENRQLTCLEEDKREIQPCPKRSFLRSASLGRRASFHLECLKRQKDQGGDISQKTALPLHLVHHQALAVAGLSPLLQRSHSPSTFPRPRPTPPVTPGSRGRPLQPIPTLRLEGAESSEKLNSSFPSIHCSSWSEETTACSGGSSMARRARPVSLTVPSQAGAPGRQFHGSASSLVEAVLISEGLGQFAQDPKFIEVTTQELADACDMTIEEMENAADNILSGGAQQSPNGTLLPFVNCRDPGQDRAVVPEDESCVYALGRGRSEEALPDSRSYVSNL

[4] = target: Cyclin-dependent kinase 13/Cyclin-K (Homo sapiens) (UniProt Q14004+O75909); assay: CDK13/CYCLIN K Invitrogen Lab (UK) kinase screen (BI); assay type: protein-complex assay; conditions: Compound concentration 1.0 uM
[5] = target: Calcium/calmodulin-dependent protein kinase type IV (Homo sapiens) (UniProt Q16566); assay: CAMK4 Invitrogen Lab (UK) kinase screen (BI); conditions: Compound concentration 1.0 uM
[6] = target: Serine/threonine-protein kinase haspin (Homo sapiens) (UniProt Q8TF76); assay: GSG2 Invitrogen Lab (UK) kinase screen (BI); conditions: Compound concentration 1.0 uM
[7] = target: Phosphorylase b kinase gamma catalytic chain, skeletal muscle/heart isoform (Homo sapiens) (UniProt Q16816); assay: PHKG1 Invitrogen Lab (UK) kinase screen (BI); conditions: Compound concentration 1.0 uM
[8] = target: PI3K p110 beta/p85 alpha (Homo sapiens) (UniProt P27986+P42338); assay: PIK3CBPIK3RI Invitrogen Lab (UK) kinase screen (BI); assay type: protein-complex assay; conditions: Compound concentration 1.0 uM
[9] = target: Protein kinase C alpha type (Homo sapiens) (UniProt P17252); assay: PRKCA Invitrogen Lab (UK) kinase screen (BI); conditions: Compound concentration 1.0 uM
[10] = target: Protein kinase C zeta type (Homo sapiens) (UniProt Q05513); assay: PRKCZ Invitrogen Lab (UK) kinase screen (BI); conditions: Compound concentration 1.0 uM
[11] = target: MAP kinase-activated protein kinase 2 (Homo sapiens) (UniProt P49137); assay: MAPKAPK2 DUNDEE kinase screen (BI); conditions: Compound concentration 10.0 uM
[12] = target: Ribosomal protein S6 kinase alpha-5 (Homo sapiens) (UniProt O75582); assay: MSK1 DUNDEE kinase screen (BI); conditions: Compound concentration 10.0 uM
[13] = target: Alpha-1A adrenergic receptor (Homo sapiens) (UniProt P35348); conditions: Compound concentration 10.0 uM
[14] = target: Alpha-1D adrenergic receptor (Homo sapiens) (UniProt P25100); conditions: Compound concentration 10.0 uM
[15] = target: Adrenergic receptor beta (Rattus norvegicus) (UniProt P18090+P10608+P26255)
[16] = target: D(2) dopamine receptor (Homo sapiens) (UniProt P14416); conditions: Compound concentration 10.0 uM
[17] = target: Cyclin-dependent kinase 2/cyclin E1 (Homo sapiens) (UniProt P24864+P24941); conditions: Compound concentration 1.0 uM
[18] = target: Myosin-IIIa (Homo sapiens) (UniProt Q8NEV4); conditions: Compound concentration 1.0 uM
[19] = target: Serine/threonine-protein kinase PLK4 (Homo sapiens) (UniProt O00444); conditions: Compound concentration 1.0 uM
[20] = target: Serine/threonine-protein kinase SBK1 (Homo sapiens) (UniProt Q52WX2); conditions: Compound concentration 1.0 uM
[21] = target: Dual specificity protein kinase CLK2 (Homo sapiens) (UniProt P49760); conditions: Compound concentration 1.0 uM
[22] = target: Casein kinase I isoform gamma-3 (Homo sapiens) (UniProt Q9Y6M4); conditions: Compound concentration 1.0 uM
[23] = target: Serine/threonine-protein kinase DCLK2 (Homo sapiens) (UniProt Q8N568); conditions: Compound concentration 1.0 uM
[24] = target: Fibroblast growth factor receptor 4 (Homo sapiens) (UniProt P22455); conditions: Compound concentration 1.0 uM
[25] = target: Tyrosine-protein kinase FRK (Homo sapiens) (UniProt P42685); conditions: Compound concentration 1.0 uM
[26] = target: Rhodopsin kinase GRK7 (Homo sapiens) (UniProt Q8WTQ7); conditions: Compound concentration 1.0 uM
[27] = target: Insulin-like growth factor 1 receptor (Homo sapiens) (UniProt P08069)
[28] = target: Insulin receptor-related protein (Homo sapiens) (UniProt P14616); conditions: Compound concentration 1.0 uM
[29] = target: Tyrosine-protein kinase JAK3 (Homo sapiens) (UniProt P52333)
[30] = target: Vascular endothelial growth factor receptor 2 (Homo sapiens) (UniProt P35968)
Chain of Vascular endothelial growth factor receptor 2 (Homo sapiens) (P35968 whole entry): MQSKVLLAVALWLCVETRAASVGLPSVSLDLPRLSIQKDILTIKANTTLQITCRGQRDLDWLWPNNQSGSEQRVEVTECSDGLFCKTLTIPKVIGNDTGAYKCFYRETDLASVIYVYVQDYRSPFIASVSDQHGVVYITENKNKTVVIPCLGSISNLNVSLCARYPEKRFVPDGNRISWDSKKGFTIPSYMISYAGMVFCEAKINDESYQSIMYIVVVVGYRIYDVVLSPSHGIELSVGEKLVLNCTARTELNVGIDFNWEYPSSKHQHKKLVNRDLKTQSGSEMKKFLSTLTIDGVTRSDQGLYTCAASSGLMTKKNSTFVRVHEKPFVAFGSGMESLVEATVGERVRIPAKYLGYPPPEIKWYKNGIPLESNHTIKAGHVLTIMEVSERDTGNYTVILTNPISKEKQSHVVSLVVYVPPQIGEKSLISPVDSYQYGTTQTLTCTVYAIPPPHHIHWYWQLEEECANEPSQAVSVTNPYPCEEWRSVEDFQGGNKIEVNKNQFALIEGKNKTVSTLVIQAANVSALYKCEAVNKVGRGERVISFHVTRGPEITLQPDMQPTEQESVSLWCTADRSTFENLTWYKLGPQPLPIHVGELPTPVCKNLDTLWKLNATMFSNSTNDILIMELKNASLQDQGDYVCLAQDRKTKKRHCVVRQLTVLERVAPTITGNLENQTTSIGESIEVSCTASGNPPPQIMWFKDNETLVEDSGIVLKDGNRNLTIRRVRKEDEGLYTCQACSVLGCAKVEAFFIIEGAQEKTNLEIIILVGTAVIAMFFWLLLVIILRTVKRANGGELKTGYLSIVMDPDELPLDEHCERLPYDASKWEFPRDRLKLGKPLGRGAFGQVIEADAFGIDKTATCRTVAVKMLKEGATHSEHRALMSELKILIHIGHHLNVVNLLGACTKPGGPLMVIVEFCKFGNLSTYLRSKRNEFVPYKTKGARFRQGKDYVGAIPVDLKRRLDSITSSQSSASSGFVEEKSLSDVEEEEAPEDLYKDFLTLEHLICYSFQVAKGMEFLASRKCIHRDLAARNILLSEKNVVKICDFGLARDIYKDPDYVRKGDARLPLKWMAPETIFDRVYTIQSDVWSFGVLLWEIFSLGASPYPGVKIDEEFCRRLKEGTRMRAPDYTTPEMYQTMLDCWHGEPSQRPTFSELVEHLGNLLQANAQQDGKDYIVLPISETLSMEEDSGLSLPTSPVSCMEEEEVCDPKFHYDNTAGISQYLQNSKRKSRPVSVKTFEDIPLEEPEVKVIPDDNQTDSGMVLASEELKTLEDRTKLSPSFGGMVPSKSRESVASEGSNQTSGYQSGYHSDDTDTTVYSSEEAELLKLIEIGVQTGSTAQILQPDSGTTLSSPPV

[31] = target: Mitogen-activated protein kinase kinase kinase 14 (Homo sapiens) (UniProt Q99558); conditions: Compound concentration 1.0 uM
[32] = target: Mitogen-activated protein kinase kinase kinase kinase 5 (Homo sapiens) (UniProt Q9Y4K4); conditions: Compound concentration 1.0 uM
[33] = target: Macrophage-stimulating protein receptor (Homo sapiens) (UniProt Q04912); conditions: Compound concentration 1.0 uM
[34] = target: Serine/threonine-protein kinase Nek1 (Homo sapiens) (UniProt Q96PY6)
[35] = target: PI3-kinase p110-delta/p85-alpha (Homo sapiens) (UniProt P27986+O00329); conditions: Compound concentration 1.0 uM
[36] = target: cAMP-dependent protein kinase catalytic subunit alpha (Homo sapiens) (UniProt P17612)
[37] = target: Protein kinase C beta type (Homo sapiens) (UniProt P05771)
[38] = target: cAMP-dependent protein kinase catalytic subunit PRKX (Homo sapiens) (UniProt P51817); conditions: Compound concentration 1.0 uM
Chain of cAMP-dependent protein kinase catalytic subunit PRKX (Homo sapiens) (P51817 whole entry): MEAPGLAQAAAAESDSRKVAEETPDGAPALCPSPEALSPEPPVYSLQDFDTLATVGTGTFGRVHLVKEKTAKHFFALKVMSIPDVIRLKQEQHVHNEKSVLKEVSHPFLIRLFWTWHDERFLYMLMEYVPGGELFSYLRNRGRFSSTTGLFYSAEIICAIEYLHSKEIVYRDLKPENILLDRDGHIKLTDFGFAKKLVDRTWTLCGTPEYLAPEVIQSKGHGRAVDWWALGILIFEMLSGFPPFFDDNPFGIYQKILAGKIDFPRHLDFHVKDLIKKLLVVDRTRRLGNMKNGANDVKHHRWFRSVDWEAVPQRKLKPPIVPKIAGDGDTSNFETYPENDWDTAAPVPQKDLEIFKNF

[39] = target: Ribosomal protein S6 kinase alpha-2 (Homo sapiens) (UniProt Q15349); conditions: Compound concentration 1.0 uM
[40] = target: Serine/threonine-protein kinase TAO3 (Homo sapiens) (UniProt Q9H2K8); conditions: Compound concentration 1.0 uM
[41] = target: Angiopoietin-1 receptor (Homo sapiens) (UniProt Q02763)
Chain of Angiopoietin-1 receptor (Homo sapiens) (Q02763 whole entry): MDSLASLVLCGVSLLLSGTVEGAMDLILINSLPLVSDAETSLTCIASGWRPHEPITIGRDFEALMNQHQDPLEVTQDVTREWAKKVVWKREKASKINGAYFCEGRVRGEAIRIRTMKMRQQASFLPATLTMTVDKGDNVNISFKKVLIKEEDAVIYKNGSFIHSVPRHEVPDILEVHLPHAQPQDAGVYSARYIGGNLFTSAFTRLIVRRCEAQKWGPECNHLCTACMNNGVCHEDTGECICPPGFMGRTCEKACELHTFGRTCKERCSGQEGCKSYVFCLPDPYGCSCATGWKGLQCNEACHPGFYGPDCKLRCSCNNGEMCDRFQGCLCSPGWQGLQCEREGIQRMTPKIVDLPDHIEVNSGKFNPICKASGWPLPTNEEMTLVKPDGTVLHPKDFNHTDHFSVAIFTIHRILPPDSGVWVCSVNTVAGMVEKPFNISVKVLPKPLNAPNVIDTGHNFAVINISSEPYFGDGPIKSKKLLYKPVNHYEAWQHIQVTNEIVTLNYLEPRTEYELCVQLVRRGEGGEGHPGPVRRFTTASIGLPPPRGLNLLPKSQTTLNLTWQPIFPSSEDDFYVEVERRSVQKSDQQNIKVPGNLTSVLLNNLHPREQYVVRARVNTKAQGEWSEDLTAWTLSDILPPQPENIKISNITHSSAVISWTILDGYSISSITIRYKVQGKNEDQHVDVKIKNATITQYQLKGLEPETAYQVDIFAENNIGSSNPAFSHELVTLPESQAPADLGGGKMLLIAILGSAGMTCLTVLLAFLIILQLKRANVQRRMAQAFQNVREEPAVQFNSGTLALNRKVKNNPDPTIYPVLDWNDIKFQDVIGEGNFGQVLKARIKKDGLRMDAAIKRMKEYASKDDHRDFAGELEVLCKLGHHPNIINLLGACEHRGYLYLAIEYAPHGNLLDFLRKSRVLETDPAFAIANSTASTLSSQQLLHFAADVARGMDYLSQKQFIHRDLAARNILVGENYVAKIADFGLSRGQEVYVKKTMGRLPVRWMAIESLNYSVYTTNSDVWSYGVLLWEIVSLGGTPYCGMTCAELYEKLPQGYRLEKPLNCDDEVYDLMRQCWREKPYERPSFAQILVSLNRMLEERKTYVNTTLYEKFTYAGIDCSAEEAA

## CCC(F)(F)c1cc(N2CCC(S(C)(=O)=O)CC2)nc2sc(C(N)=O)c(N)c12 [BI-605906]
[1]
  residual activity: 79%
[2]
  residual activity: 53%
[3]; compound concentration 1 uM
  activity at 1 µM: 104% (not active)
[3]; compound concentration 3 uM
  activity at 3 µM: 94% (not active)
[3]; compound concentration 10 uM
  activity at 10 µM: 91% (not active)
[3]; compound concentration 30 uM
  activity at 30 µM: 77% (not active)
[3]; compound concentration 100 uM
  activity at 100 µM: 41.5%
[4]
  residual activity: 85%
[5]
  residual activity: 103%
[6]
  residual activity: 70%
[7]
  residual activity: 103%
[8]
  residual activity: 124%
[9]
  residual activity: 85%
[10]
  residual activity: 112%
[11]
  residual activity: 94.5%
[12]
  residual activity: 86.6%
[13]
  inhibition: 18.9%
[14]
  inhibition: 36.7%
[15]; Compound concentration 10.0 uM
  residual activity: 86%
[15]; Compound concentration 100.0 uM
  residual activity: 94%
[16]
  residual activity: 100%
[17]
  residual activity: 94%
[18]
  residual activity: 92%
[19]
  residual activity: 89%
[20]
  residual activity: 98%
[21]
  residual activity: 91%
[22]
  residual activity: 99%
[23]
  residual activity: 101%
[24]
  residual activity: 96%
[25]
  residual activity: 92%
[26]
  residual activity: 101%
[27]; Compound concentration 1.0 uM
  residual activity: 95%
[27]; Compound concentration 10.0 uM
  residual activity: 99%
[28]
  residual activity: 92%
[29]; Compound concentration 1.0 uM
  residual activity: 92%
[29]; Compound concentration 10.0 uM
  residual activity: 95%
[30]; Compound concentration 1.0 uM
  residual activity: 98%
[30]; Compound concentration 10.0 uM
  residual activity: 79%
[31]
  residual activity: 100%
[32]
  residual activity: 101%
[33]
  residual activity: 105%
[34]; Compound concentration 1.0 uM
  residual activity: 92%
[34]; Compound concentration 10.0 uM
  residual activity: 30%
[35]
  residual activity: 87%
[36]; Compound concentration 1.0 uM
  residual activity: 98%
[36]; Compound concentration 10.0 uM
  residual activity: 71%
[37]; Compound concentration 1.0 uM
  residual activity: 89%
[37]; Compound concentration 10.0 uM
  residual activity: 102%
[38]
  residual activity: 96%
[39]
  residual activity: 96%
[40]
  residual activity: 93%
[41]; Compound concentration 1.0 uM
  residual activity: 93%
[41]; Compound concentration 10.0 uM
  residual activity: 82%
